Substitutions are numbered along the chain they refer to.

Holding throughout (experiment): yeast liquid growth assay
Format in all cases: cell-based

The target of one test is T1, hA1AR D55G^2.50 (Homo sapiens, UniProt P30542, D55G).
T1 construct: expressed in transfected cells; host or cells: S. cerevisiae MMY24
T1 sequence (P30542 1-326 D55G): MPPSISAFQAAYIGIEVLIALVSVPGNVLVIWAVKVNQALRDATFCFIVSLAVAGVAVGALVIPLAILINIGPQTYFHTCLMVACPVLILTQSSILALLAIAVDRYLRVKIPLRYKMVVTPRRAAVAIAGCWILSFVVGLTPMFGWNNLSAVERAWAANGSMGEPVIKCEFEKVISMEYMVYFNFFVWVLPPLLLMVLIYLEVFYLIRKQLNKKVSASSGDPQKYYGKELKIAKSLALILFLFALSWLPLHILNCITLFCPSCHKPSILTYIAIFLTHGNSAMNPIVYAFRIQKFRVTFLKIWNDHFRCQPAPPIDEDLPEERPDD
The settings on record: result in words. As to the method: (§1) The plasmids, pDT-PGK_hA1AR, containing either wild type or mutated hA1AR were transformed into a MMY24 S. cerevisiae strain following the lithium acetate procedure.
(§2) In order to characterize the mutant hA1ARs, liquid growth assays in 96-well plates were performed to obtain concentration–growth curves as previously described. […] The overnight cultures were then diluted to 40,000 cells/mL (OD600 ≈ 0.02) in a selective medium without uracil, leucine, and histidine (YNB-ULH). For the determination of constitutive activity, 50 μL of yeast cells and 150 μL of YNB-ULH medium containing different concentrations of 3-AT and 0.8 IU/mL ADA were then added to each well. To obtain concentration–growth curves, 2 μL of various concentrations of ligands, 50 μL of yeast cells, and 150 μL of YNB-ULH medium containing 7 mM 3-AT and 0.8 IU/mL ADA were then added to each well. After incubation at 30 °C for 35 h in a Genios plate reader (TECAN, Zürich, Switzerland) with shaking for 1 min at 300 rpm every 10 min, the optical density was measured at a wavelength of 595 nm, which represented the level of yeast cell growth.
(§3) All experimental data were analyzed by GraphPad Prism 7.0 or 8.0 (GraphPad Software Inc., San Diego, CA, USA). Data from yeast liquid growth and [^35S]GTPγS binding assays were analyzed by non-linear regression using “log (agonist) vs. response (three parameters)” or “log (inhibitor) vs. response (three parameters)” to obtain potency (EC50), inhibitory potency (IC50), and efficacy (Emax or Imax) values. The radioligand displacement curves were obtained from a statistically preferred one-site or two-site binding model. pKi values were calculated from pIC50 values using the Cheng–Prusoff equation, where KD values were obtained from the homologous competition assays from this study and calculated by non-linear regression using “one site–homologous” [62].

A further test has as its target T2, hA1AR H78L^3.23 (Homo sapiens, UniProt P30542, H78L).
T2 sequence (P30542 1-326 H78L): T1 sequence (P30542 1-326 D55G) with G55D, H78L
As to the method:
as §1, §2, §3

The next test concerns the target T3, hA1AR D55V^2.50 (Homo sapiens, UniProt P30542, D55V).
T3 construct: expressed in transfected cells; host or cells: S. cerevisiae MMY24
T3 sequence (P30542 1-326 D55V): T1 sequence (P30542 1-326 D55G) with G55V
The settings on record: result in words. As to the method: as §1, §2, §3

The target of another test is T4, hA1AR G279S^7.44 (Homo sapiens, UniProt P30542, G279S).
T4 sequence (P30542 1-326 G279S): T1 sequence (P30542 1-326 D55G) with G55D, G279S
The settings on record: ratio over basal activity of wild type hA1AR, 7 mM 3-AT. As to the method: as §1, §2, §3

In the next test the target is T5, hA1AR T257P^6.58 (Homo sapiens, UniProt P30542, T257P).
T5 construct: expressed in transfected cells; host or cells: S. cerevisiae MMY24
T5 sequence (P30542 1-326 T257P): T1 sequence (P30542 1-326 D55G) with G55D, T257P
The settings on record: result in words. As to the method:
as §1, §2, §3

As to `OC[C@H]1O[C@@H](n2cnc3c(NC4CCCC4)ncnc32)[C@H](O)[C@@H]1O` [CPA, N^6-cyclopentyladenosine], the agonist-induced receptor activation entry was “could not be activated” at hA1AR D55G^2.50, “further activation could not be obtained” on hA1AR H78L^3.23 (result in words), “could not be activated” at hA1AR D55V^2.50 and “could not be activated” on hA1AR T257P^6.58. Also, the Emax on hA1AR H78L^3.23 (ratio over basal activity of wild type hA1AR, 7 mM 3-AT) was 4.15 ± 0.17; on hA1AR G279S^7.44 it was 4.96 ± 0.38.

The values are drawn from PMC9229843, “Cancer-Related Somatic Mutations in Transmembrane Helices Alter Adenosine A1 Receptor Pharmacology” (Molecules, 2022).
